Test results published in patent publication EP4559927A1, “CARRIER PEPTIDE FRAGMENT AND USE THEREOF” (Toagosei Co., Ltd., priority 2022, dated 2025).
Primed or numbered codes have the meaning given here. FAM = 5(6)-carboxyfluorescein; FAM″ = C-terminal FAM dye

Test system: NSC-34 cells
Assay: Evaluation on cell membrane permeability by flow cytometry
Format: cell-based, mouse
Details: median fluorescence intensity of FAM (detector FL2), 25 µM construct, 0.42% DMSO, 20 hours at 37°C, 5% CO2
Protocol: As the eukaryotic cells, NSC-34 cells (mouse motor neuron-like hybrid cell line) were used and the cell membrane permeability of the samples 1 to 7 was analyzed. In Examples 1 to 7, the prepared sample solutions 1 to 7 were used, respectively, and in Example 8, a FAM solution was used.
The NSC-34 cells were cultured in 10% fetal bovine serum (FBS)-containing Dulbecco's modified Eagle's medium (DMEM (Cat No. 044-29765, manufactured by FUJIFILM Wako Pure Chemical Corporation)), which is a normal culture medium.
The NSC-34 cells that adhered to a culture plate were cleaned with PBS and then, a 0.25%-trypsin/EDTA solution was added thereto, and incubation was performed for three minutes at 37°C. After the incubation, the aforementioned 10% FBS-containing DMEM was added to deactivate trypsin and then, five-minute centrifugal separation was performed at 150 × g to precipitate the cells. After the supernatant generated by the centrifugal separation was removed, the 10% FBS-containing DMEM was added to the precipitate (cell pellet) to prepare a cell suspension of about 2 × 10^5 cells/mL. The cell suspension was added by 1 mL to a well of a commercially available six-hole (well) plate (manufactured by AGC TECHNO GLASS Co., Ltd.) so as to seed the cell (about 2 × 10^5 cells/well). In addition, the 6 mM sample solution 1 was diluted with the 10% FBS-containing DMEM to prepare the sample solution 1 in which the concentration of the sample 1 was 50 µM. Then, 1 mL of the 50 µM sample solution 1 was added to the well (that is, so that the concentration of the sample 1 became 25 µM and the DMSO concentration became 0.42% in the culture solution in the well). After that, the cell was incubated for 20 hours at 37°C under a 5% CO2 condition.
After the 20-hour incubation, the culture supernatant was removed from the well and the cells in the well were cleaned twice with 1 mL of PBS. Next, 200 µL of the 0.25% trypsin/EDTA solution was added to the well and the incubation was performed for three minutes at 37°C. After the incubation, 400 µL of the 10% FBS-containing DMEM was added to the well to deactivate the trypsin. Subsequently, the cell suspension in the well was transferred to a tube and the cells were collected. After that, 600 µL of PBS was added further to the well to clean the well. Then, PBS in the well was transferred to the tube, so that the cells remaining in the well were collected in the tube. This tube was subjected to five-minute centrifugal separation at 4°C under a condition of 210 × g. After the centrifugal separation, the supernatant was removed and the precipitate (cell pellet) was suspended (cleaned) with 1 mL of PBS, which was followed by the centrifugal separation under the same condition as that described above. After this operation was repeated twice, the supernatant was removed and thus, the cells (cell pellet) cultured in a culture medium containing the sample 1 were obtained.
Regarding the obtained cells (cell pellet), the cell membrane permeability of the sample 1 was analyzed using a flow cytometer. As the flow cytometer, On-Chip Flowcytometer (manufactured by On-Chip Biotechnologies Co., LTD.) was used.
For such an analysis, the obtained cell pellet was suspended with 100 µL of on-chip T buffer to prepare a cell suspension for analysis.
Using the aforementioned flow cytometer, gating based on forward scatter (FSC) and side scatter (SSC) was performed to set a gate about a cell group to be analyzed, and the fluorescence intensity was measured about the cell group in this gate. Note that the analysis was performed so that the cell group contained at least 10000 cells or more. The fluorescence intensity was measured using a fluorescence detector FL2 of the flow cytometer (optimum detection wavelength around 543 nm) capable of detecting the fluorescence wavelength of FAM. […]

Substance | MFI
Ac-KKRTLRKEDEDRKKR-FAM (Ac-KKRTLRKEDEDRKKR-{FAM″}) [Example 3] | 13.8
Ac-KKRTLRKDERKKR-FAM (Ac-KKRTLRKDERKKR-{FAM}) [Example 1] | 16.3
Ac-KKRTLRKEDEDEDRKKR-FAM (Ac-KKRTLRKEDEDEDRKKR-{FAM}) [Example 7] | 14.3
Ac-KKRTLRKDDEERKKR-FAM (Ac-KKRTLRKDDEERKKR-{FAM}) [Example 5] | 14.8
Ac-KKRTLRKDEDERKKR-FAM [Example 6] | 15.2
5(6)-carboxyfluorescein [Example 8] | 11
Ac-KKRTLRKEEDDRKKR-FAM (Ac-KKRTLRKEEDDRKKR-{FAM}) [Example 4] | 14.3
Ac-KKRTLRKEDRKKR-FAM (Ac-KKRTLRKEDRKKR-{FAM}) [Example 2] | 15.7
